Paper PMC6197089, “Disubstituted piperazine analogues of trifluoromethylphenylpiperazine and methylenedioxybenzylpiperazine: analytical differentiation and serotonin receptor binding studies” (Forensic sciences research, 2018)
Read-outs that look alike come from different tables or passages of the source.

How the values were obtained:
[1] = target: T1, 5-HT7 receptors (Homo sapiens, UniProt P34969); assay: PDSP radioligand competition binding, 5-HT7; details: for Ki: secondary binding assay, average of n = 3
T1 construct: University of North Carolina Psychoactive Drug Screening Project (PDSP), contract testing
T1 sequence (P34969 whole entry): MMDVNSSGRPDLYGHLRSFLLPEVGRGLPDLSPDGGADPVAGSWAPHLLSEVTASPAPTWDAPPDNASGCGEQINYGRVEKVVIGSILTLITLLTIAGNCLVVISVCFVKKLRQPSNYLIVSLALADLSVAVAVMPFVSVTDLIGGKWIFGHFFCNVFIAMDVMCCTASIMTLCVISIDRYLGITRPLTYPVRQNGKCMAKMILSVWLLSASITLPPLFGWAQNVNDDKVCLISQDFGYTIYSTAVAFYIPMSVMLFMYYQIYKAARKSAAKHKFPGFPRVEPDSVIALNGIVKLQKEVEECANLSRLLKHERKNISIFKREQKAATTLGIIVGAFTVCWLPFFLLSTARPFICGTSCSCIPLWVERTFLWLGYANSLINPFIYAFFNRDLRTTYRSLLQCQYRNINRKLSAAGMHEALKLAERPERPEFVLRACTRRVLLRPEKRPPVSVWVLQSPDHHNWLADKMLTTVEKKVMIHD
Experimental: (§1) All six of the hybrid TFMPP–MDBP regioisomers reported in this manuscript were tested for their serotonin receptor and reuptake pump binding profiles by the University of North Carolina's Psychoactive Drug Screening Project (PDSP). Initially, each isomer was tested in a primary assay at a concentration of 10 umol/L for its ability to displace a standard ligand at each serotonin receptor and transporter subtype. […] The Ki (nmol/L) values were obtained from non-linear regression of radioligand competition binding isotherms in this assay and calculated from best-fit inhibitory concentration IC50 values using the Cheng–Prusoff equation. The reported values are the average of three (n = 3) determinations. Further experimental details regarding these receptor assays are presented in the PDSP Protocol Manual available at the PDSP website.

[2] = target: T2, 5-HT2C receptors (Homo sapiens, UniProt P28335); assay: PDSP radioligand competition binding, 5-HT2C; details: for Ki: secondary binding assay, average of n = 3
T2 construct: University of North Carolina Psychoactive Drug Screening Project (PDSP), contract testing
T2 sequence (P28335 33-458): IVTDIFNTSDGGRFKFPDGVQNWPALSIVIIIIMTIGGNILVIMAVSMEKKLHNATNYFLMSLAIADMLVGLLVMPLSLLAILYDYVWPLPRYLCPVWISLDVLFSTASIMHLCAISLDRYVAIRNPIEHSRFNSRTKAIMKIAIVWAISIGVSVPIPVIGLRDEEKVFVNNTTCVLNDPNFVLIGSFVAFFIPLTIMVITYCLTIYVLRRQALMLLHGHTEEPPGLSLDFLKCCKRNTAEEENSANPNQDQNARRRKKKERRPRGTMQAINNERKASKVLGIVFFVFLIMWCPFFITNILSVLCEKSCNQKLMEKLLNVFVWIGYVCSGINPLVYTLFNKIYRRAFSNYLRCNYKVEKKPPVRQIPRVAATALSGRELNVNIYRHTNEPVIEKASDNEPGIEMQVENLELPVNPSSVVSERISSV
Experimental: as §1

[3] = target: T3, 5-HT2A receptors (Homo sapiens, UniProt P28223); assay: PDSP radioligand competition binding, 5-HT2A; details: for Ki: secondary binding assay, average of n = 3
T3 construct: University of North Carolina Psychoactive Drug Screening Project (PDSP), contract testing
T3 sequence (P28223 whole entry): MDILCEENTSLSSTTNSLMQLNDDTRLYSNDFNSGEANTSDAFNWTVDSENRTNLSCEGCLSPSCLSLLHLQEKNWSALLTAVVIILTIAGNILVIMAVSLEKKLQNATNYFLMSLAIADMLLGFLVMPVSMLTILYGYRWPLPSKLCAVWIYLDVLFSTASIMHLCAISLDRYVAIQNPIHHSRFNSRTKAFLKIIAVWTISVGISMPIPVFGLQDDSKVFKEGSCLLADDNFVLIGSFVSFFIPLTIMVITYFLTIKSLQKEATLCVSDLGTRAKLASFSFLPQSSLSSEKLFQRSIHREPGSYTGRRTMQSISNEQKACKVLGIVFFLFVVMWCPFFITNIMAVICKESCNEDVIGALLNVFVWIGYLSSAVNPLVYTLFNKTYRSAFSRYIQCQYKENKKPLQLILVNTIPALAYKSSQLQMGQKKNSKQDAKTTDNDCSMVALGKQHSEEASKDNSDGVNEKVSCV
Experimental: as §1

[4] = target: T4, SERT (serotonin reuptake pump) (Homo sapiens, UniProt P31645); assay: PDSP radioligand competition binding, SERT; details: for Ki: secondary binding assay, average of n = 3
T4 construct: University of North Carolina Psychoactive Drug Screening Project (PDSP), contract testing
T4 sequence (P31645 whole entry, species assumed): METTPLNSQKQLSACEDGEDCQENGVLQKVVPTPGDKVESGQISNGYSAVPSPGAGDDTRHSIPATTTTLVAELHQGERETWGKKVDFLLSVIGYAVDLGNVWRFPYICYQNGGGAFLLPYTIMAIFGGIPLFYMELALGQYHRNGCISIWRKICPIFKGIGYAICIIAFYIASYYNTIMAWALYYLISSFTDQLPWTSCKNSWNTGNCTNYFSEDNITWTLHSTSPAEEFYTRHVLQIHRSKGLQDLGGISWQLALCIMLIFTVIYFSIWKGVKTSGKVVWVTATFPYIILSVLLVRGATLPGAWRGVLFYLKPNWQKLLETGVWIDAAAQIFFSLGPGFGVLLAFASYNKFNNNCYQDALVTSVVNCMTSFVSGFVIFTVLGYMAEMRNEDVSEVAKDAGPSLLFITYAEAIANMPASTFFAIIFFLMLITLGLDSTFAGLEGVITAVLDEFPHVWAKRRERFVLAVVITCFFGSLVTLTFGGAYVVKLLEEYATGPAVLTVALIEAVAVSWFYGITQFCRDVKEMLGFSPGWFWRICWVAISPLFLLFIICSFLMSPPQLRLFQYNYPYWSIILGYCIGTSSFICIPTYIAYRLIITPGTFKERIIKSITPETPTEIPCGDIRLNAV
Experimental: as §1

[5] = target: T5, 5-HT1A receptors (Homo sapiens, UniProt P08908); assay: PDSP radioligand competition binding, 5-HT1A; details: secondary binding assay, average of n = 3
T5 construct: University of North Carolina Psychoactive Drug Screening Project (PDSP), contract testing
T5 sequence (P08908 1-422): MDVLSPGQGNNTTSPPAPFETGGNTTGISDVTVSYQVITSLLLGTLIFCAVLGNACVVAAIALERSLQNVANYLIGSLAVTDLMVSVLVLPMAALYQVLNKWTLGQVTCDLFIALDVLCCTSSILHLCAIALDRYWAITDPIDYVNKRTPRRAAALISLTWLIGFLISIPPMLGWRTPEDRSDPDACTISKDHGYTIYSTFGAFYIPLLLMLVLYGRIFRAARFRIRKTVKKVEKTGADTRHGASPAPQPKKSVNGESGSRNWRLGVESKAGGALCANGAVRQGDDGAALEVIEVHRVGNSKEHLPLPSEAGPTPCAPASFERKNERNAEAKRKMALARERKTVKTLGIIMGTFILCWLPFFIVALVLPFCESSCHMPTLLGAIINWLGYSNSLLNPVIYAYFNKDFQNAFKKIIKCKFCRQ
Experimental: as §1

[6] = target: T6, 5-HT2B receptors (Homo sapiens, UniProt P41595); assay: PDSP radioligand competition binding, 5-HT2B; details: secondary binding assay, average of n = 3
T6 construct: University of North Carolina Psychoactive Drug Screening Project (PDSP), contract testing
T6 sequence (P41595 whole entry): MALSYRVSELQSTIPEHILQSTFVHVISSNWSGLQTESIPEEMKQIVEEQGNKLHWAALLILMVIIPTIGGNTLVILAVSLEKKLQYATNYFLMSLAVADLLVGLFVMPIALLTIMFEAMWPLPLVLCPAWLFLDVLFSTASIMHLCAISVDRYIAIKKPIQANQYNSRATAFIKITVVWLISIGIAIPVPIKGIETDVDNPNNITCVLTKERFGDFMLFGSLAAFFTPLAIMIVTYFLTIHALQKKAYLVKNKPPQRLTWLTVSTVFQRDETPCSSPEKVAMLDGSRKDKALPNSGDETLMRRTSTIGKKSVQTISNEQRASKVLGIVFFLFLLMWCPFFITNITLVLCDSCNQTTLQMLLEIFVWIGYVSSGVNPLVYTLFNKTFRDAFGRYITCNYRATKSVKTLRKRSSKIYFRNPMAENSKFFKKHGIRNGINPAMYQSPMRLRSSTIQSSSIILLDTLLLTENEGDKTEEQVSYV
Experimental: as §1

[7] = tested on: cardiomyoblast h9c2 cells; details: cited from earlier work
[8] = target: 5-HT1B receptors; details: literature value, no reference given; cited from earlier work
[9] = tested on: other serotonin receptor subtypes; details: literature, no reference given; cited from earlier work
[10] = target: T3, 5-HT2A receptors; details: read-out: Ki, 5-HT2A; literature value, no reference given; cited from earlier work
[11] = target: T5, 5-HT1A receptors; details: read-out: Ki, 5-HT1A; literature value, no reference given; cited from earlier work
[12] = tested on: SERT; details: no reference given, cited from earlier work
[13] = tested on: dopamine and norepinephrine reuptake pumps; details: literature, no reference given; cited from earlier work
[14] = target: 5-HT1D receptors; details: literature value, no reference given; cited from earlier work
[15] = tested on: 5-HT1A, 5-HT1B, 5-HT1D and 5-HT2C receptors; details: literature, no reference given; cited from earlier work
[16] = tested on: 5-HT2A receptor; details: literature, no reference given; cited from earlier work

| Compound | binding by 5-HT7 receptors, in words [1] | Ki [1] [nM] | binding to 5-HT2C receptors, in words [2] | Ki [2] [nM] | Ki [3] [nM] | Ki [4] [nM] | Ki [5] [nM] | Ki [6] [nM] | other results |
| --- | --- | --- | --- | --- | --- | --- | --- | --- | --- |
| FC(F)(F)c1ccccc1N1CCN(Cc2cccc3c2OCO3)CC1 [Compound 1, 2-TFMPP-2,3-MDBP] | bound by 5-HT7 receptors | 165 | modest binding | 868 | > 1000 | > 1000 | > 1000 | 74.5 | binding by 5-HT7 receptors, in words ([1]; listed as 2-TFMPP-2,3-MDBP): highest affinity |
| FC(F)(F)c1ccc(N2CCN(Cc3cccc4c3OCO4)CC2)cc1 [Compound 3, 4-TFMPP-2,3-MD] | – | > 1000 | – | > 1000 | > 1000 | > 1000 | > 1000 | 870 | – |
| c1cc2c(cc1CN1CCNCC1)OCO2 [3,4-MDBP, 1-(3,4-methylenedioxybenzyl) piperazine] | – | – | – | – | – | – | – | – | intracellular calcium levels [7]: significant increase; mitochondrial membrane potential [7]: decrease |
| FC(F)(F)c1cccc(N2CCNCC2)c1 [Compound 3-TFMPP, 1-(3-trifluoromethylphenyl) piperazine] | – | – | – | – | – | – | – | – | Ki [8]: 132 nM; affinity for other serotonin receptor subtypes, in words [9]: does not show significant affinity; Ki [10]: 269 nM; Ki [11]: 288 nM; EC50 ([12]; literature value, read-out: effective concentration (EC50) at SERT): 121 nM; serotonin release, in words ([12]; literature): promotes serotonin release; effects on dopamine and norepinephrine reuptake pumps [13]: no effects; Ki [14]: 282 nM; functional activity at all sites except 5-HT2A [15]: full agonist; intracellular calcium levels [7]: significant increase; mitochondrial membrane potential [7]: decrease; functional activity at the 5-HT2A receptor [16]: weak partial agonist or antagonist |
| FC(F)(F)c1cccc(N2CCN(Cc3cccc4c3OCO4)CC2)c1 [Compound 2, 3-TFMPP-2,3-MDBP] | bound by 5-HT7 receptors | 747 | modest binding | 753 | 372 | > 1000 | 864 | 203 | affinity at 5-HT2A receptors compared to 3-TFMPP, in words [3]: retained activity comparable to the parent designer drug |
| FC(F)(F)c1cccc(N2CCN(Cc3ccc4c(c3)OCO4)CC2)c1 [Compound 5, 3-TFMPP-3,4-MDBP] | bound by 5-HT7 receptors | 516 | modest binding | 430 | > 1000 | > 1000 | 188 | 116 | – |
| FC(F)(F)c1ccccc1N1CCN(Cc2ccc3c(c2)OCO3)CC1 [Compound 4, 2-TFMPP-3,4-MDBP] | bound by 5-HT7 receptors | 462 | modest binding | 924 | > 1000 | > 1000 | > 1000 | 81 | – |
| FC(F)(F)c1ccc(N2CCN(Cc3ccc4c(c3)OCO4)CC2)cc1 [Compound 6, 4-TFMPP-3,4-MDBP] | – | > 1000 | – | > 1000 | > 1000 | 722 | > 1000 | 247 | affinity for SERT pumps, in words [4]: significant affinity; potency at SERT relative to monosubstituted 3-TFMPP [4]: about six-times less potent |
